What all share (assay type): cell-based
The subject of assay [1] is total bacteria in paper mill white water. The assay can be described thus: Total bacterial counts in white water, mill using mechanical pulp (Example 1). As to conditions: 50 minutes contact time; for Total bacterial counts: white water. The method, then:
The furnish used in this mill is composed of about 50% TMP, 25% bleached Kraft pulp, and 25% broke. White water was collected and total bacterial counts were determined in samples with and without the addition of DMH stabilized chlorine (1:1 molar ratio of DMH to “Cl2) and/or PAA, after 50 minutes of contact time.

Assay [2] has the same test system. Nature of the assay: Total bacterial counts in white water, mill using chemical pulp (Example 2). The following applies: 30 minutes contact time; for Total bacterial counts: white water. The procedure: The furnish used on this paper machine is composed of about 60% bleached Kraft pulp, and 40% broke. White water was collected and total bacterial counts were determined in samples with and without the addition of DMH stabilized chlorine (1:1 molar ratio of DMH to “Cl2”), and/or PAA, after 30 minutes of contact time.

Assay [3] shares this test system. The assay can be described thus: Total bacterial counts in white water, very closed mill using chemical pulp (Example 3). The arrangement: Total bacterial counts: unit not given here. The following applies: 30 minutes contact time; for Total bacterial counts: white water. The method, then: The furnish used in this mill is composed of about 75% bleached Kraft pulp, and 25% broke. White water was collected and total bacterial counts were determined in samples with and without the addition of DMH stabilized chlorine (1:1 molar ratio of DMH to “Cl2”), and/or PAA, after 30 minutes of contact time.

One compound from patent US20070012632A1, “Synergistic composition and method for inhibiting growth of microorganisms” (priority 2005, published 2007) can be followed below.

With `CC(=O)OO` [PAA, peracetic acid], the Total bacterial counts is recorded as 4 × 10^6 in assay [1] (PAA 25 ppm product); 3 × 10^5 in assay [1] (PAA 50 ppm product); 3 × 10^3 in assay [1] (PAA 100 ppm product); 5.8 × 10^6 in assay [2] (PAA 2.5 ppm product); 1.1 × 10^6 in assay [2] (PAA 5 ppm product); 5 × 10^4 in assay [2] (PAA 10 ppm product). The Total bacterial counts in assay [3] (PAA 50 ppm product) is recorded as 4.5 × 10^6; in assay [3] (PAA 75 ppm product) it was 1.6 × 10^6; in assay [3] (PAA 100 ppm product) it was 3 × 10^5; in assay [3] (PAA 150 ppm product) it was 10^3; in assay [3] (PAA 200 ppm product), <10^2. The “Concentration alone achieving >3-log reduction in bacterial counts” value in assay [1] (biocide alone) is 100 ppm; in assay [2] (biocide alone), greater than 10 ppm. Besides, the “Concentration alone achieving 2-log reduction in bacterial counts” value in assay [3] (biocide alone) was 150 ppm.
